Measurements: patent publication EP4268823A1, “COMPOUND FOR TREATING NEUROINFLAMMATION” (Universitätsklinikum Hamburg-Eppendorf, priority 2022, dated 2023)

Legend:
[1] = test system: primary neuronal cultures; assay: Cytosolic calcium imaging of H2O2-exposed neuronal cultures; format: cell-based, mouse; conditions: acute hydrogen peroxide stimulation, UNC0642 vs. DMSO
Experimental: For primary cortical cultures pregnant C57BL/6J, or G9afl/fl;Snap25-Cre mice were euthanized. To ensure comparability between genotypes, only embryos from heterozygous breeding's were used. Brainstem tissue of each embryo for genotyping was reserved and cortices were isolated, dissociated and cells were plated at a density of 1 × 10^5 cells per 1 cm^2 on poly-D-lysine-coated wells (5 µM Sigma-Aldrich, cat. no. A-003-M). If not stated otherwise, cells were maintained in neurobasal plus medium (supplemented with B27 plus, penicillin, streptomycin and L-glutamine; Gibco, cat. no. A3582901) at 37°C, 5% CO^2 and a relative humidity of 98%, and treated with 1 µM cytarabine (Sigma-Aldrich, cat. no. BP383) at 1 day in vitro (div) to inhibit glial cell proliferation. If no cytarabine was applied cells were maintained in PNBM medium (supplemented with neural cell survival factor, gentamycin and L-glutamine; Lonza). […]
Primary neuronal cultures were seeded on Ibidi 60 µ-Dish Quad (cat. No. 80411) plates. […] Before applying the indicated chemicals, 5-10 min of baseline activity was first recorded. […] For data analysis, mean fluorescence values of every cell were measured using Fiji software (NIH) and normalized to the maximal calcium response after ionomycin challenge. For each cell, mean AUC of the calcium response was calculated using a custom R script.

[2] = test system: primary neuronal cultures; assay: Oxidative stress detection with CellROX green reagent after glutamate; format: cell-based, mouse; conditions: 20 µM glutamate 1 hour, UNC0642 pre-treatment
Experimental: (§1) For primary cortical cultures pregnant C57BL/6J, or G9afl/fl;Snap25-Cre mice were euthanized. To ensure comparability between genotypes, only embryos from heterozygous breeding's were used. Brainstem tissue of each embryo for genotyping was reserved and cortices were isolated, dissociated and cells were plated at a density of 1 × 10^5 cells per 1 cm^2 on poly-D-lysine-coated wells (5 µM Sigma-Aldrich, cat. no. A-003-M). If not stated otherwise, cells were maintained in neurobasal plus medium (supplemented with B27 plus, penicillin, streptomycin and L-glutamine; Gibco, cat. no. A3582901) at 37°C, 5% CO^2 and a relative humidity of 98%, and treated with 1 µM cytarabine (Sigma-Aldrich, cat. no. BP383) at 1 day in vitro (div) to inhibit glial cell proliferation. If no cytarabine was applied cells were maintained in PNBM medium (supplemented with neural cell survival factor, gentamycin and L-glutamine; Lonza). Throughout, cultures after 14-23 div were used for experiments. G9a inhibitor UNC0642 was used in a concentration of 1 µM and cultures were pre-treated 24 hours before further experimental procedures.
For the detection of oxidative stress in response to glutamate treatment, CellROX green reagent (Thermofisher) was used. […] Immunofluorescence of nuclear CellROX dye was quantified using Fiji (ImageJ).

anti-ferroptotic genes = assay: qPCR of ferroptosis-related genes in sorted spinal cord neuronal nuclei of EAE mice; format: in vivo, mouse; conditions: EAE + UNC0642 vs. EAE
glutathione = assay: GSH-Glo glutathione measurement after glutamate; format: cell-based, mouse; conditions: primary cortical neurons, glutamate 2 hours, UNC0642-treated
Experimental: as §1
GSH-Glo Glutathione assay (Promega) was used as described by the manufacturer. Primary cortical neurons were cultured in a 96-well plate and stimulated with glutamate for 2 hours. […] After 15 min, luminescence was detected at a Spark 10M multimode microplate reader (Tecan).

EAE mice = assay: Experimental autoimmune encephalomyelitis (EAE): clinical score and spinal cord histopathology
primary neurons = assay: Cell death induction, dead neurons with CellTox green reagent; format: cell-based, mouse; conditions: 1 µM UNC0642 pre-treated 24 hours
Experimental: as §1
Primary neurons were subjected to dedicated compounds initiating either apoptosis (stauro-sporine), necroptosis (TNF-α + LCL-161 + Z-VAD-FMK, or shikonin), or ferroptosis (RSL3, or erastin) for 48 h in G9afl/fl;Snap25-Cre cultures, or cultures pre-treated for 24 hours with 1 µM UNC0642. Together with the cell death inducing compounds, CellToxTM Green Cytotoxicity Assay (Promega) was added to primary neurons 1:2000. Before fixation with 4% paraformaldehyde, cells were counterstained with Hoechst […]. Neurons were imaged on a Zeiss LSM 700 confocal microscope using 20× magnification.

Structure (SMILES): COc1cc2c(NC3CCN(C(C)C)CC3)nc(N3CCC(F)(F)CC3)nc2cc1OCCCN1CCCC1 [UNC0642, 2-(4,4-difluoropiperidin-1-yl)-6-methoxy-N-[1-(propan-2-yl)piperidin-4-yl]-7-[3-(pyrrolidin-1-yl)propoxy]quinazolin-4-amine]
- hydrogen peroxide-induced calcium overload [1]: rescued hydrogen peroxide-induced calcium overload
- generation of ROS (CellROX green) [2]: reduced the generation of ROS close to baseline levels
- mRNA expression of Cbs (anti-ferroptotic genes): significantly boosted the expression
- mRNA expression of Gclc (anti-ferroptotic genes): significantly boosted the expression
- mRNA expression of Gpx4 (anti-ferroptotic genes): significantly boosted the expression
- mRNA expression of Nfe212 (anti-ferroptotic genes): significantly boosted the expression
- mRNA expression of multiple glutathione S-transferases (anti-ferroptotic genes): derepression
- glutathione levels (glutathione): partial rescue of glutathione levels
- EAE disease course (EAE mice; 5 mg kg-1 body weight once daily intraperitoneally from symptom onset, vs. vehicle): significantly ameliorated EAE disease course
- body weight changes (EAE mice; EAE, 5 mg kg-1 UNC0642): not altered
- immune cell infiltration (EAE mice; EAE, 5 mg kg-1 UNC0642): not altered
- microglia activation (EAE mice; EAE, 5 mg kg-1 UNC0642): not altered
- 4-hydroxy-2-nonenal (4-HNE) levels (EAE mice; cervical spinal cord sections, chronic EAE, 5 mg kg-1 UNC0642 vs. vehicle): significantly reduced
- neuronal loss in the spinal cord ventral horn (EAE mice; chronic EAE, day 30, 5 mg kg-1 UNC0642): reduced neuronal loss
- ferroptosis (dead neurons) induced by RSL3 (primary neurons; 48 h inducer): substantially rescued
- ferroptosis (dead neurons) induced by erastin (primary neurons; 48 h inducer): substantially rescued
- necroptosis (dead neurons) (primary neurons; TNF-α + LCL-161 + Z-VAD-FMK, or shikonin, 48 h): neither apoptosis nor necroptosis was affected
- apoptosis (dead neurons) (primary neurons; staurosporine 48 h): neither apoptosis nor necroptosis was affected
